# Results as given in patent publication US9255094B2, “Pyrido[4,3-B]indoles and methods of use” (Medivation Technologies, Inc., priority 2009, dated 2016).
# Key:
# [1] = molecular target: T1, human recombinant adrenergic α2A receptor (Homo sapiens, UniProt P08913); assay: Adrenergic α2A radioligand binding assay ([3H]MK-912); settings: 1 nM [3H]MK-912, insect Sf9 cells; for inhibition at 0.1 µM: compound at 0.1 μM, read-out: Percent Inhibition of ligand binding, Adrenergic (0.1 μM) a2A; for inhibition at 1 µM: compound at 1 μM, read-out: Percent Inhibition of ligand binding, Adrenergic (1 μM) a2A
# T1 construct: expressed in transfected cells; host or cells: insect Sf9 cells
# T1 sequence (P08913 1-465): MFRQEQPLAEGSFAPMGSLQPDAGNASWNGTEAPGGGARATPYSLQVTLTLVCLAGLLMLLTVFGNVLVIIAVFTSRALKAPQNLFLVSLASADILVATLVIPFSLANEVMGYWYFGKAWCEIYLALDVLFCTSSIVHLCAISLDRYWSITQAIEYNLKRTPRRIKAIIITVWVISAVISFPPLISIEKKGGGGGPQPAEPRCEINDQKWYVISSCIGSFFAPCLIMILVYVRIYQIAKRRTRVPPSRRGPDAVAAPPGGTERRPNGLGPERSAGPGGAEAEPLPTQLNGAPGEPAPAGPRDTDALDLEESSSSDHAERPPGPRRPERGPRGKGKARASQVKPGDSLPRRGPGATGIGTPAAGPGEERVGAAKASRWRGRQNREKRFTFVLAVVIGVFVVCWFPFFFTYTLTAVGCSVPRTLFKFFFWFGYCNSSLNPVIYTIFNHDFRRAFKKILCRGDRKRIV
# Procedure: To evaluate in radioligand binding assays the activity of compounds of the invention, human recombinant adrenergic α2A receptor expressed in insect Sf9 cells (Uhlen S et al. J. Pharmacol. Exp. Ther. 271:1558, 1994) in a modified Tris-HCl buffer (50 mM Tris-HCl, pH 7.4, 12.5 mM MgCl2, 2 mM EDTA) was used. Compounds of invention were incubated with 1 nM [^3H]MK-912 for 60 min at 25° C. MK912 is (2S-trans)-1,3,4,5′,6,6′,7,12b-octahydro-1′,3′-dimethyl-spiro[2H-benzofuro[2,3-a]quinolizine-2,4′(1′H)-pyrimidin]-2′(3′H)-one hydrochloride Non-specific binding was estimated in the presence of 10 μM WB-4101 (2-(2,6-dimethoxyphenoxyethyl)aminomethyl-1,4-benzodioxane hydrochloride). Receptor proteins were filtered and washed, the filters were then counted to determine [^3H]MK-912 specifically bound.
# [2] = molecular target: T2, rat adrenergic α1A receptor (Rattus norvegicus, UniProt P43140); assay: Adrenergic α1A radioligand binding assay ([3H]Prozosin); settings: compound at 0.1 μM; 0.25 nM [3H]Prozosin; Wistar Rat submaxillary glands; read-out: Percent Inhibition of ligand binding, Adrenergic (0.1 μM) a1A
# T2 construct: from tissue; host or cells: Wistar Rat submaxillary glands
# T2 sequence (P43140 1-466): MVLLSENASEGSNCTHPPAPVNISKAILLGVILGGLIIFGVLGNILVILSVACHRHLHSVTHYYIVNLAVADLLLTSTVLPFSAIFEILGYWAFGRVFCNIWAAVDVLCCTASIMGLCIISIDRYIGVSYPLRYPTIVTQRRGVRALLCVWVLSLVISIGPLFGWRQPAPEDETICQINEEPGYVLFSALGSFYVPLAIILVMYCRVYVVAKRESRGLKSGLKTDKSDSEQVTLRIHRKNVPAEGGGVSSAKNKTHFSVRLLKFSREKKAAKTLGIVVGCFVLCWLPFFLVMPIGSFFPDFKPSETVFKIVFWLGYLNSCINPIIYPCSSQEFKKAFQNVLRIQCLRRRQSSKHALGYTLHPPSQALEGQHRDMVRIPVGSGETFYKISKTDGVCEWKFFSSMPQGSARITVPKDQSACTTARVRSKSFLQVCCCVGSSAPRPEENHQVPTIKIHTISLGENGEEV
# Procedure: To evaluate in radioligand binding assays the activity of compounds of the invention, rat adrenergic α1A receptor obtained from Wistar Rat submaxillary glands (Michel, A. D. et al., Br. J. Pharmacol. 98:883, 1989) in a modified Tris-HCl buffer (50 mM Tris-HCl buffer, pH 7.4, 0.5 mM EDTA) is used. Compounds of the invention are incubated with 0.25 nM [^3H]Prozosin for 60 min at 25° C. Non-specific binding is estimated in the presence of 10 μM phentolamine. Receptor proteins are filtered and washed, the filters are then counted to determine [^3H]Prozosin specifically bound. Compounds of the invention are screened at 1 μM or lower, using 1% DMSO as vehicle. Compounds of the invention are tested in this biochemical assay and percent inhibition of specific binding is determined.
# [3] = molecular target: T3, human recombinant serotonin (5-Hydroxytryptamine) 5-HT2A receptor (Homo sapiens, UniProt P28223); assay: Serotonin 5-HT2A radioligand binding assay ([3H]Ketanserin); settings: 0.5 nM [3H]Ketanserin, CHO-K1 cells; for inhibition at 1 µM: compound at 1 μM, read-out: Percent Inhibition of ligand binding, Serotonin (1 μM) 5-HT2A; for inhibition at 0.1 µM: compound at 0.1 μM, read-out: Percent Inhibition of ligand binding, Serotonin (0.1 μM) 5-HT2A
# T3 construct: expressed in transfected cells; host or cells: Chinese hamster ovary (CHO-K1) cells
# Procedure: Compounds of the invention were incubated with 0.5 nM [^3H]Ketanserin for 60 min at 25° C. Non-specific binding was estimated in the presence of 1 μM Mianserin. Receptor proteins were filtered and washed, the filters were then counted to determine [^3H]Ketanserin specifically bound. Compounds were screened at 1 μM or lower, using 1% DMSO as vehicle. Biochemical assay results are presented as the percent inhibition of specific binding in Table 4.
# [4] = molecular target: T4, human recombinant adrenergic α1D receptor (Homo sapiens, UniProt P25100); assay: Adrenergic α1D radioligand binding assay ([3H]Prozosin); settings: compound at 1 μM; 0.6 nM [3H]Prozosin; HEK-293 cells; read-out: Percent Inhibition of ligand binding, Adrenergic (1 μM) a1D
# T4 construct: expressed in transfected cells; host or cells: human embryonic kidney (HEK-293) cells
# T4 sequence (P25100 1-572): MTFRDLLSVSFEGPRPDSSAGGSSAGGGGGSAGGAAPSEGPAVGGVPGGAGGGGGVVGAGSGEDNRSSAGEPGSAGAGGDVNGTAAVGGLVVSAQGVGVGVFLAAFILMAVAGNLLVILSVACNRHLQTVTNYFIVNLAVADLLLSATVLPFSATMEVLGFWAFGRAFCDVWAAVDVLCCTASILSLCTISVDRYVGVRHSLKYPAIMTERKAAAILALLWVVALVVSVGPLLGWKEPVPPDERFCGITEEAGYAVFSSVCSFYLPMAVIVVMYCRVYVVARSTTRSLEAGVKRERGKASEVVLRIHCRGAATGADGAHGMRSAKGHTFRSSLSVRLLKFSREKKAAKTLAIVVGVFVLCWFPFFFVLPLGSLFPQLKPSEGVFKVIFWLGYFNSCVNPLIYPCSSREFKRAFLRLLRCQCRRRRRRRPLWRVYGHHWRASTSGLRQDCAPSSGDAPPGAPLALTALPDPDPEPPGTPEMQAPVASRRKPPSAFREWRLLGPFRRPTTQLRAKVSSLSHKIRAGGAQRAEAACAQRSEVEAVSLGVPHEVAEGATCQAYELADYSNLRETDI
# Procedure: Compounds of invention were incubated with 0.6 nM [^3H]Prozosin for 60 min at 25° C. Non-specific binding was estimated in the presence of 10 μM phentolamine Receptor proteins were filtered and washed, the filters were then counted to determine [^3H]Prozosin specifically bound.
# T3 sequence (P28223 whole entry): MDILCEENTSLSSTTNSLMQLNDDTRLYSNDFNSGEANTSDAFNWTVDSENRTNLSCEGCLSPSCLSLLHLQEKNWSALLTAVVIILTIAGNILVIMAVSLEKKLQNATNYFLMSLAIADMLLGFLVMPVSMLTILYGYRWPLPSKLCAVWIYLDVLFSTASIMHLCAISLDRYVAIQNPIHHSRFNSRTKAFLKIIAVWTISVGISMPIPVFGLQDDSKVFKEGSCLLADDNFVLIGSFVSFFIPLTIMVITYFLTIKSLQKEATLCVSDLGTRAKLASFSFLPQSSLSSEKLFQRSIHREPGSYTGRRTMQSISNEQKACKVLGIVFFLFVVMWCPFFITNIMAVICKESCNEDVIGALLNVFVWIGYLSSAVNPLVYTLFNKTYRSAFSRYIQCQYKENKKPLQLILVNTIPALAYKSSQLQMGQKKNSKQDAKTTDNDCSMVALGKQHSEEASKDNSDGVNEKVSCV
Compound,inhibition at 0.1 µM [1] [%],inhibition at 0.1 µM [2] [%],inhibition at 1 µM [3] [%],inhibition at 1 µM [4] [%],inhibition at 1 µM [1] [%],inhibition at 0.1 µM [3] [%]
"Cc1ccc2c(c1)c1c(n2CC(O)c2ccncc2)CCN(C)C1 (stereo not drawn) [Compound 1-8, 2-(2,8-dimethyl-3,4-dihydro-1H-pyrido[4,3-b]indol-5(2H)-yl)-1-(pyridin-4-yl)ethanol]",37,9,86,–,–,–
"CN1CCc2c(c3cc(Cl)ccc3n2CC(O)c2ccncc2)C1 (stereo not drawn) [Compound 1-11, 2-(8-chloro-2-methyl-3,4-dihydro-1H-pyrido[4,3-b]indol-5(2H)-yl)-1-(pyridin-4-yl)ethanol]",41,12,82,–,–,–
"Cc1ccc2c(c1)c1c(n2CC(C)(O)c2ccc(O)cc2)CCN(C)C1 (stereo not drawn) [Compound 1-15, 4-(1-(2,8-dimethyl-3,4-dihydro-1H-pyrido[4,3-b]indol-5(2H)-yl)-2-hydroxypropan-2-yl)phenol]",32,36,102,–,–,–
"CN1CCc2c(c3cc(Cl)c(Cl)cc3n2CC(C)(O)c2ccncc2)C1 (stereo not drawn) [Compound 1-17, 1-(7,8-dichloro-2-methyl-3,4-dihydro-1H-pyrido[4,3-b]indol-5(2H)-yl)-2-(pyridin-4-yl)propan-2-ol]",64,0,96,–,–,–
"Cc1ccc2c(c1)c1c(n2CCc2ccc(C)nc2)CCN(CCC#N)C1 [Compound 1-34, 3-(8-methyl-5-(2-(6-methylpyridin-3-yl)ethyl)-3,4-dihydro-1H-pyrido[4,3-b]indol-2(5H)-yl)propanenitrile]",–,–,0,6,3,–
"Cc1ccc2c(c1)c1c(n2CC(=O)c2ccccc2)CCN(C)C1 [Compound 1-35, 2-(2,8-dimethyl-3,4-dihydro-1H-pyrido[4,3-b]indol-5(2H)-yl)-1-phenylethanone]",–,–,90,18,19,–
"CN1CCc2c(c3cc(Cl)ccc3n2CC(=O)c2ccccc2)C1 [Compound 1-36, 2-(8-chloro-2-methyl-3,4-dihydro-1H-pyrido[4,3-b]indol-5(2H)-yl)-1-phenylethanone]",–,–,98,52,43,–
"CN1CCc2c(c3cc(Cl)ccc3n2CC(=O)c2ccc(F)cc2)C1 [Compound 1-37, 2-(8-chloro-2-methyl-3,4-dihydro-1H-pyrido[4,3-b]indol-5(2H)-yl)-1-(4-fluorophenyl)ethanone]",–,–,98,56,87,–
"CN1CCc2c(c3cc(Cl)ccc3n2CC(=O)c2ccc(Cl)cc2)C1 [Compound 1-38, 2-(8-chloro-2-methyl-3,4-dihydro-1H-pyrido[4,3-b]indol-5(2H)-yl)-1-(4-chlorophenyl)ethanone]",–,–,100,56,90,–
"Cc1ccc2c(c1)c1c(n2CC(=O)c2ccc(F)cc2)CCN(C)C1 [Compound 1-39, 2-(2,8-dimethyl-3,4-dihydro-1H-pyrido[4,3-b]indol-5(2H)-yl)-1-(4-fluorophenyl)ethanone]",–,–,98,57,88,–
"Cc1ccc2c(c1)c1c(n2CCc2ccc(CCCN)nc2)CCN(C)C1 [Compound 1-40, 3-(5-(2-(2,8-dimethyl-3,4-dihydro-1H-pyrido[4,3-b]indol-5(2H)-yl)ethyl)pyridin-2-yl)propan-1-amine]",–,–,78,53,31,–
"Cc1ccc2c(c1)c1c(n2CCc2ccc(C(F)(F)F)nc2)CCNC1 [Compound 1-41, 8-methyl-5-(2-(6-(trifluoromethyl)pyridin-3-yl)ethyl)-2,3,4,5-tetrahydro-1H-pyrido[4,3-b]indole]",–,–,66,74,58,–
"Cc1ccc2c(c1)c1c(n2CCc2ccc(C)nc2)CCN(CCCO)C1 [Compound 1-42, 3-(8-methyl-5-(2-(6-methylpyridin-3-yl)ethyl)-3,4-dihydro-1H-pyrido[4,3-b]indole-2(5H)-yl)propan-1-ol]",–,–,87,55,35,–
"Cc1ccc2c(c1)c1c(n2CC(C)c2ccncc2)CCN(C)C1 (stereo not drawn) [Compound 1-46, 2,8-dimethyl-5-(2-(pyridin-4-yl)propyl)-2,3,4,5-tetrahydro-1H-pyrido[4,3-b]indole]",–,12,–,–,–,71
"Cc1ccc2c(c1)c1c(n2CC(C)(C)c2ccncc2)CCN(C)C1 [Compound 1-49, 2,8-dimethyl-5-(2-methyl-2-(pyridin-4-yl)propyl)-2,3,4,5-tetrahydro-1H-pyrido[4,3-b]indole]",–,13,–,–,–,78
"CCCC[C@@](O)(Cn1c2c(c3cc(Cl)ccc31)CN(C)CC2)c1ccc(F)cc1 [Compound 1-67, (S)-1-(8-chloro-2-methyl-3,4-dihydro-1H-pyrido[4,3-b]indol-5(2H)-yl)-2-(4-fluorophenyl)hexan-2-ol]",–,2,–,–,–,39
